Active and inactive are the calls of the source. How the calls were made is not given here.
These molecules were tested against Influenza A virus M2 proton channel (A/TW/4845/1999 H1N1) (assay: NMR binding screen, influenza A virus M2 proton channel, Kd (AID 1549)). Details: M2 protein.
In the case of O=C(O)CSc1nnc(-c2cccs2)o1, the Kd is reported as > 4 mM (inactive).
CC(C)(O)CC[C@@H](O)[C@](C)(O)C1CC[C@@]2(O)C3=CC(=O)C4C[C@@H](O)[C@@H](O)C[C@]4(C)C3CC[C@]12C (stereo not given in full) was tested, and the Kd was > 4 mM (inactive).
In the case of Fc1ccc(F)c(CN2CCN(c3ncccn3)CC2)c1, the Kd is reported as > 4 mM (inactive).
In the case of O=S1(=O)CCC(NC(=S)Nc2ccc(O)cc2)C1 (stereo not given), the Kd is reported as > 4 mM (inactive).
In the case of O=CN1CCN(C(=O)c2ccco2)CC1, the Kd is reported as > 4 mM (inactive).
In the case of CCC(C)C(=O)OC1[C@@H]2CC3=C4CC(=O)O[C@@H](c5ccoc5)[C@]4(C)CCC3C(C)(C2=O)[C@@H](CC(=O)OC)C1(C)C (stereo not given in full), the Kd is reported as > 4 mM (inactive).
For COc1ccc(N2C(=N)C(C)(C)NC2=O)cc1, the Kd was > 4 mM (inactive).
O=C(CSc1ncn[nH]1)c1ccc2c(c1)OCCO2 was tested, and the Kd was > 4 mM (inactive).
In the case of CC(=O)Oc1c2c(c(CC=C(C)C)c3c1C(=O)C1=C[C@@H]4CC5C(C)(C)OC(C/C=C(\C)C(=O)O)(C4=O)[C@@]15O3)OC(C)(CCC=C(C)C)C=C2 (stereo not given in full), the Kd is reported as > 4 mM (inactive).
In the case of COc1c2c(cc3occ(-c4ccc5c(c4)OCO5)c(=O)c13)OC(C)(C)C=C2, the Kd is reported as > 4 mM (inactive).
For C=C1C2CC[C@@]3(C)[C@H](c4ccoc4)OC(=O)C[C@]13O[C@H]1CC(=O)C(C)(C)[C@H](C(OC(C)=O)C(=O)OC)[C@@]21C (stereo not given in full), the Kd was > 4 mM (inactive).
For O=C1NC(=O)C(Cc2cccs2)C(=O)N1, the Kd was > 4 mM (inactive).
In the case of O=C(O)C1CSC(c2cc3ccccc3nc2Cl)N1 (stereo not given), the Kd is reported as > 4 mM (inactive).
In the case of CC(=O)NC(=S)Nc1ccccc1N1CCOCC1, the Kd is reported as > 4 mM (inactive).
In the case of O=C(CSc1ncnc2ccccc12)NCCCO, the Kd is reported as > 4 mM (inactive).
With CC(=O)OC1CC[C@@]2(C)C(CCC3C2CC[C@]2(C)C(C4=CC(=O)OC4)C(OC(C)=O)CC32O)C1 (stereo not given in full) the Kd was > 4 mM (inactive).
In the case of COc1cc(/C=C/C(=O)O)ccc1O, the Kd is reported as > 4 mM (inactive).
With NC1=NC(=O)CC(C(=O)Nc2ccccc2)S1 (stereo not given) the Kd was > 4 mM (inactive).
For O=C(Nc1nnc(-c2ccncc2)o1)c1cccs1, the Kd was > 4 mM (inactive).
CC(C)C(C)/C=C/C(C)C1CCC2C3=CC=C4CC(O)CCC4(C)C3CCC21C (stereo not given) was tested, and the Kd was > 4 mM (inactive).
For CC(=O)Nc1cccc(N2CCCC2=O)c1, the Kd was > 4 mM (inactive).
With COc1cc(OC)cc(-c2nc(N)n[nH]2)c1 the Kd was > 4 mM (inactive).
In the case of O=c1[nH]c2c(c(=O)n1C1CCCCC1)CCC2, the Kd is reported as > 4 mM (inactive).
For CC1(C)CC(=O)c2sc(N)nc2C1, the Kd was > 4 mM (inactive).
With COC(=O)c1ccc(C(=S)N2CCOCC2)cc1 the Kd was > 4 mM (inactive).
O=C1COc2ccc(C(=O)c3ccccc3)cc2CN1 was tested, and the Kd was > 4 mM (inactive).
In the case of CSc1nnc2c(n1)OC=Nc1ccccc1-2, the Kd is reported as > 4 mM (inactive).
In the case of CC1(NC(=O)NCc2ccccc2)CCS(=O)(=O)C1 (stereo not given), the Kd is reported as > 4 mM (inactive).
O=C(O)C1CCN(S(=O)(=O)c2cccs2)CC1 was tested, and the Kd was > 4 mM (inactive).
CCn1ccc(C(=O)Nc2nccs2)n1 was tested, and the Kd was > 4 mM (inactive).
O=C1C=CC(=O)N1c1ccccc1O was tested, and the Kd was > 4 mM (inactive).
COc1ccc(-c2oc3cc(O[C@H]4O[C@H](CO)[C@@H](O)[C@H](O)[C@H]4O)c(OC)c(O)c3c(=O)c2OC)cc1O was tested, and the Kd was > 4 mM (inactive).
NC(CC(=O)O)C(=O)Nc1ccc(Cl)cc1 (stereo not given) was tested, and the Kd was > 4 mM (inactive).
For CC(C)c1c(O)ccc2c1CCC1C(C)(C)CCC[C@]21C (stereo not given in full), the Kd was > 4 mM (inactive).
In the case of CC(=O)Nc1ccc(NC(=O)C2CC2)cc1, the Kd is reported as > 4 mM (inactive).
For COc1ccc(-c2nc3nc(C)cc(C)n3n2)cc1, the Kd was > 4 mM (inactive).
For Cc1cc(C(=O)N2CCCCCC2)cs1, the Kd was > 4 mM (inactive).
With O=C(NCc1cccs1)c1nn2cccnc2c1Cl the Kd was > 4 mM (inactive).
With COCc1cc(=O)oc2cc(N)ccc12 the Kd was > 4 mM (inactive).
NC1=NC(=O)/C(=C\c2ccco2)S1 was tested, and the Kd was > 4 mM (inactive).
In the case of Cc1nnc(NCCO)[nH]c1=O, the Kd is reported as > 4 mM (inactive).
CNC[C@@H](O)c1ccc(O)c(O)c1 was tested, and the Kd was > 4 mM (inactive).
In the case of Cn1c(CNc2ccccc2)cc(=O)n(C)c1=O, the Kd is reported as > 4 mM (inactive).
For C[n+]1cccc(C(=O)[O-])c1, the Kd was > 4 mM (inactive).
With Nc1c(C(=O)O)sc2ncccc12 the Kd was > 4 mM (inactive).
Cc1noc(-c2ccccc2)c1CO was tested, and the Kd was > 4 mM (inactive).
CNC(=O)COc1cccc2c1CCNC2=O was tested, and the Kd was > 4 mM (inactive).
In the case of O=C1CCC(C(=O)NCc2ccc(Cl)cc2)N1 (stereo not given), the Kd is reported as > 4 mM (inactive).
COc1ccccc1NC(N)=S was tested, and the Kd was > 4 mM (inactive).
With CC(=O)Nc1cc2c(cc1C(=O)C(C)C)OCCO2 the Kd was > 4 mM (inactive).
In the case of C/C=C/COc1nc2c(c(=O)n(C)c(=O)n2C)n1C, the Kd is reported as > 4 mM (inactive).
In the case of CCc1ccc(C(=O)N2CCCC2)s1, the Kd is reported as > 4 mM (inactive).
CCN(CC)S(=O)(=O)c1ccc(F)cc1 was tested, and the Kd was > 4 mM (inactive).
In the case of COc1ccc(CN2CCNC(=O)C2CC(=O)O)cc1C (stereo not given), the Kd is reported as > 4 mM (inactive).
With CC(=O)NC(=S)Nc1ccc(C(C)=O)cc1 the Kd was > 4 mM (inactive).
COc1ccc(CN2CCOCC2)c(C)c1C was tested, and the Kd was > 4 mM (inactive).
For NCCNC(=S)Nc1ccccc1, the Kd was > 4 mM (inactive).
For O=c1c(Cl)c(NCCO)ncn1-c1ccccc1, the Kd was > 4 mM (inactive).
For COC(=O)Nc1nc2c(s1)CCCC2, the Kd was > 4 mM (inactive).
With CS(=O)(=O)N1CCN(C(=O)c2ccccc2)C1 the Kd was > 4 mM (inactive).
In the case of Oc1ccccc1N1CCCC1, the Kd is reported as > 4 mM (inactive).
In the case of NC(N)=Nc1nc2ccccc2o1, the Kd is reported as > 4 mM (inactive).
With Nc1ccccc1-n1cccn1 the Kd was > 4 mM (inactive).
For NCCc1c[nH]c2ccccc12, the Kd was > 4 mM (inactive).
CC(CCC(=O)O)[C@H]1CCC2C3CC[C@@H]4CCCC[C@]4(C)C3CC[C@@]21C (stereo not given in full) was tested, and the Kd was > 4 mM (inactive).
In the case of Cc1cc(/C=N/O)nc(=O)[nH]1, the Kd is reported as > 4 mM (inactive).
Cc1ccsc1/C=c1\sc2ncnn2c1=O was tested, and the Kd was > 4 mM (inactive).
For Cc1cc(SCCF)n2ncnc2n1, the Kd was > 4 mM (inactive).
O=C(/C=C/c1ccccc1)c1ccc(O[C@@H]2O[C@H](CO)[C@@H](O)[C@H](O)[C@H]2O)cc1O was tested, and the Kd was > 4 mM (inactive).
In the case of CC(=O)O[C@H]1CC[C@]2(C)C3CC[C@@]4(C)C(CC5O[C@@]6(CCC(C)CO6)[C@@H](C)C54)C3CC[C@@H]2C1 (stereo not given in full), the Kd is reported as > 4 mM (inactive).
In the case of C[C@@H]1[C@H]2[C@H](O[C@@H]3O[C@H](CO)[C@@H](O)[C@H](O)[C@H]3O)OC=C(C(=O)O)[C@H]2C[C@@H]1O, the Kd is reported as > 4 mM (inactive).
For O=C1C2C3C=CC(O3)C2C(=O)N1c1ccccc1 (stereo not given), the Kd was > 4 mM (inactive).
CCOC(=O)CC1Sc2ccccc2NC1=S (stereo not given) was tested, and the Kd was > 4 mM (inactive).
For O=C(C1CCC(C(=O)N2CCCC2)CC1)N1CCCC1 (stereo not given), the Kd was > 4 mM (inactive).
In the case of CCS(=O)(=O)N1CCN(c2ccccc2F)CC1, the Kd is reported as > 4 mM (inactive).
Nc1nnc(SCc2ccc(F)cc2Cl)s1 was tested, and the Kd was > 4 mM (inactive).
For Oc1cc2c(cc1O)C1c3ccc(O)c(O)c3OCC1(O)C2 (stereo not given), the Kd was > 4 mM (inactive).
Nc1nc(-c2ccccc2)ns1 was tested, and the Kd was > 4 mM (inactive).
In the case of Cc1noc(C)c1C(=O)Nc1ccccn1, the Kd is reported as > 4 mM (inactive).
In the case of O=C(NCC1CCNCC1)c1ccccn1, the Kd is reported as > 4 mM (inactive).
For Cc1cc(C(=O)N2CCOCC2)c(C)o1, the Kd was > 4 mM (inactive).
O=C1C2C3C=CC(C3)C2C(=O)N1CCCO (stereo not given) was tested, and the Kd was > 4 mM (inactive).
In the case of Nc1cccc(-c2cnco2)c1, the Kd is reported as > 4 mM (inactive).
In the case of Cc1nc(SCC(=O)c2c[nH]c3ccccc23)n[nH]1, the Kd is reported as > 4 mM (inactive).
In the case of COc1c(O)cccc1O, the Kd is reported as > 4 mM (inactive).
C#CCCCCCCCCCCCc1ccco1 was tested, and the Kd was > 4 mM (inactive).
CC(=O)O[C@H]1C[C@@H](OC(C)=O)C(C)(C)C2CC(=O)[C@]3(C)C(CC[C@@]4(C)[C@H](C(=O)O)OC(=O)C5OC543)[C@]21C (stereo not given in full) was tested, and the Kd was > 4 mM (inactive).
For COc1nc(-c2ccccc2)ccc1-c1noc(C)n1, the Kd was > 4 mM (inactive).
In the case of CC(CO)NC(=O)C1C=C2c3cccc4[nH]cc(c34)C[C@H]2N(C)C1 (stereo not given in full), the Kd is reported as > 4 mM (inactive).
With COc1ccc2cnn(-c3ccccc3)c(=O)c2c1OC the Kd was > 4 mM (inactive).
For COC(=O)C1=CCCN(C)C1, the Kd was > 4 mM (inactive).
COc1ccc2ccc(=O)oc2c1 was tested, and the Kd was > 4 mM (inactive).
In the case of Cc1cc(NC(=O)CSc2ccnc(=O)[nH]2)no1, the Kd is reported as > 4 mM (inactive).
In the case of O=C(CNC(=O)c1ccc(F)cc1)NC1=NCCS1, the Kd is reported as > 4 mM (inactive).
For CSc1nnc(-c2ccccc2NC(C)=O)o1, the Kd was > 4 mM (inactive).
With CC1(C)O[C@H]2CC(=O)OC[C@]23[C@H]2CC[C@@]4(C)[C@H](c5ccoc5)OC(=O)[C@H]5O[C@]54[C@]2(C)C(=O)C[C@@H]13 the Kd was > 4 mM (inactive).
c1ccc(Cc2nnc3sc(-c4cccnc4)nn23)cc1 was tested, and the Kd was > 4 mM (inactive).
CC(C)=CCc1c(O)cc2oc(C)cc(=O)c2c1O was tested, and the Kd was > 4 mM (inactive).
In the case of CC1(C)C(=O)CC[C@@]2(C)C1C[C@@H](O)[C@@]1(C)C3=CC(=O)O[C@@H](c4ccoc4)[C@]3(C)CCC21 (stereo not given in full), the Kd is reported as > 4 mM (inactive).
With c1ccc(-c2noc(-c3cccnc3)n2)nc1 the Kd was > 4 mM (inactive).
In the case of O=C(O)CCCc1nc2ccccc2s1, the Kd is reported as > 4 mM (inactive).
With NC(=O)c1cccnc1Oc1ccccc1 the Kd was > 4 mM (inactive).
For O=C(CC1CCCCC1)N1CCN(c2ccccn2)CC1, the Kd was > 4 mM (inactive).
For Cc1cc2cc(N)ccc2[nH]1, the Kd was > 4 mM (inactive).
With COc1cccc(Oc2ccc(N)cn2)c1 the Kd was > 4 mM (inactive).
In the case of Cn1cc(Cl)c(C(=O)NC2CCCC2)n1, the Kd is reported as > 4 mM (inactive).
In the case of NC(=O)CSc1ccc(-c2ccco2)nn1, the Kd is reported as > 4 mM (inactive).
With COc1ccc2c(c1OC)C(=O)N(c1ncn[nH]1)C2 the Kd was > 4 mM (inactive).
In the case of O=C(Nc1nnc(-c2cccnc2)o1)c1ccccc1F, the Kd is reported as > 4 mM (inactive).
CC(=O)NC(=S)Nc1nc2ccccc2n1C(C)=O was tested, and the Kd was > 4 mM (inactive).
O=c1cc(-c2ccccc2)oc2cc(O)cc(O)c12 was tested, and the Kd was > 4 mM (inactive).
O=C1NC(=O)C(C(=S)Nc2ccccc2)C(=O)N1 was tested, and the Kd was > 4 mM (inactive).
In the case of NC1C2CC3CC1CC(O)(C3)C2 (stereo not given), the Kd is reported as > 4 mM (inactive).
CC(=O)Nc1nnc(-c2ccco2)o1 was tested, and the Kd was > 4 mM (inactive).
For CCOC(=O)c1c(C)nc2ncccn12, the Kd was > 4 mM (inactive).
